# Format: physicochemical
# Procedure: The form in question or mixtures of different forms of tembotrione were suspended in a mixture of methanol with water (volume ratio methanol:water 1:9) at temperatures in the range from 10 to 30° C., and the temperature varied cyclically at a rate of 0.33 K min^−1.
compound,measurement,value
"CS(=O)(=O)c1ccc(C(=O)C2C(=O)CCCC2=O)c(Cl)c1COCC(F)(F)F [mixture of forms A, B and C, 2-[2-chloro-4-methylsulfonyl-3-(2,2,2-trifluoro-ethoxymethyl)benzoyl]cyclohexan-1,3-dione]",stability against phase change: modification found after 2 days,converted into form A
"CS(=O)(=O)c1ccc(C(=O)C2C(=O)CCCC2=O)c(Cl)c1COCC(F)(F)F [form A, 2-[2-chloro-4-methylsulfonyl-3-(2,2,2-trifluoro-ethoxymethyl)benzoyl]cyclohexan-1,3-dione]",stability against phase change: modification found after 8 days,unchanged
"CS(=O)(=O)c1ccc(C(=O)C2C(=O)CCCC2=O)c(Cl)c1COCC(F)(F)F [form B, 2-[2-chloro-4-methylsulfonyl-3-(2,2,2-trifluoro-ethoxymethyl)benzoyl]cyclohexan-1,3-dione]",stability against phase change: modification found after 3 days,converted completely into modification C

# From patent publication US8309769B2, “Crystalline forms of 2-[2-chloro-4-methylsulfony1-3-(2,2,2-trifluoroethoxymethyl)benzoyl]cyclohexan-1,3-dione” (BASF SE, priority 2007, dated 2012)
